We go through 3 compounds from US20080269052A1, “USE of PYRIDINE-2-OXY-3-CARBOXAMIDES AS SAFENERS” (priority 2007, published 2008).

Common to all, as to format: in vivo
Experiment [1] has as its system economically important harmful plants (weed grases and broad-leaved weeds). The experiment can be described thus: Post-emergence herbicide action against harmful plants in the presence of safener. The settings on record: in combination with safener. The text has this: (§1) The damage to the plants is scored visually using a scale of 0-100%, in comparison to control plants: 0%=no noticeable effect compared to the untreated plant 100%=the treated plants dies. Seeds or rhizome pieces of monocotyledonous and dicotyledonous harmful plants and crop plants are placed in sandy loam soil in plastic pots, covered with soil and cultivated in the greenhouse under good growth conditions. Alternatively, harmful plants encountered in paddy rice cultivation are cultivated in pots in which the surface of the soil is covered by up to 2 cm of water. Ten to twenty days after sowing, the test plants are treated at the one to three-leaf stage. The herbicide/safener active compound combinations according to the invention, formulated as water-soluble powders or suspensions, and in parallel tests the individual active compounds formulated in a corresponding manner, are sprayed at various dosages at a water application rate of 300 l/ha (converted) onto the green parts of the plants, and, after the test plants were left to stand in the greenhouse for about 2 to 3 weeks under optimum growth conditions, the effect of the preparations is scored visually in comparison to untreated controls. In the case of rice or harmful plants encountered in the cultivation of rice, the active compounds are also added directly to the irrigation water (application analogously to the so-called granule application) or sprayed onto the plants and into the irrigation water.

Experiment [2] has the same test system. The experiment can be described thus: Pre-emergence herbicide action against harmful plants in the presence of safener. The note with it: in combination with safener. The source says:
(§2) The damage to the plants is scored visually using a scale of 0-100%, in comparison to control plants: 0%=no noticeable effect compared to the untreated plant 100%=the treated plants dies. Seeds or rhizome pieces of monocotyledonous and dicotyledonous weed plants and crop plants were placed in sandy loam soil in plastic pots and covered with soil. The herbicide/safener active compound combinations according to the invention, formulated as water-soluble powders or suspensions, and in parallel tests the individual active compounds formulated in a corresponding manner, were then, at various dosages at a water application rate of 300 to 800 l/ha (converted), applied to the surface of the covering soil. After the treatment, the pots were placed in the greenhouse and kept under good growth conditions for the weeds and the crop plants. Visual scoring of the plant damage or emergence damage was carried out after the test plants had emerged after a test period of 2 to 4 weeks, in comparison to untreated controls.

For experiment [3], the system named is Hordeum vulgare (barley). The experiment can be described thus: Post-emergence herbicide action and safener action, barley. The settings on record: safener (Ia) 100 g of AS/ha, HORVU.
Text: as §1

The subject of experiment [4] is Triticum aestivum (spring wheat). The experiment in a line: Post-emergence herbicide action and safener action, spring wheat. The settings on record: TRZAS.
Text: as §1

The subject of experiment [5] is Zea mays (corn). The experiment in a line: Post-emergence herbicide action and safener action, corn. The settings on record: safener (Ia) 50 g of AS/ha, ZEAMX.
Text: as §1

Experiment [6] concerns Oryza sativa (rice). The experiment can be described thus: Post-emergence herbicide action and safener action, rice. The note with it: ORYSA.
Text: as §1

The test system of experiment [7] is Zea mays (corn). The experiment in a line: Pre-emergence herbicide action and safener action, corn. The note with it: ZEAMX.
Text: as §2

Experiment [8] concerns Oryza sativa (rice). The experiment can be described thus: Pre-emergence herbicide action and safener action, rice. The settings on record: herbicide (2.2.16) oxadiazon 400 g of AS/ha, safener (Ia) 75 g of AS/ha, ORYSA.
Text: as §2

Experiment [9] has as its system Hordeum vulgare (barley). The experiment in a line: Seed treatment with safeners, barley. The note with it: HORVU. The source says: (§3) The damage to the plants is scored visually using a scale of 0-100%, in comparison to control plants: 0%=no noticeable effect compared to the untreated plant 100%=the treated plants dies. Seeds of crop plants were mixed in bottles with the safeners according to the invention, formulated as suspension or emulsion concentrates, and water, and the mixture was shaken well so that the seeds were coated evenly with the formulation of the safener in question. The seeds or the emerged plants were then tested with herbicides in the pre- or post-emergence method according to the tests of examples 3.3 and 3.2, respectively.

In experiment [10] the test system is Triticum aestivum (spring wheat). The experiment in a line: Seed treatment with safeners, spring wheat. The settings on record: safener (Ia) 1.0 g of AS/kg seed, TRZAS.
Text: as §3

Experiment [11] concerns Zea mays (corn). The experiment in a line: Seed treatment with safeners, corn. The settings on record: ZEAMX.
Text: as §3

[12] abbreviates: herbicide (1.2.1.58) thiencarbazone-methyl 15 g of AS/ha.

For `NC(=O)c1ccc(C(F)(F)Cl)[nH]c1=O` [safener (Ib), 2-oxo-6-difluorochloromethyl-1,2-dihydropyridine-3-carboxamide], the “action of the herbicide against economically important harmful plants” value (“action of the herbicide” below) in experiment [1] is “not, or not substantially, adversely affected”. Besides, in experiment [2], the “action of the respective herbicide against economically important harmful plants” value (shortened to “action of the respective herbicide”) is listed as “not, or not substantially, adversely affected”.

In the case of `NC(=O)c1ccc(C(F)(F)F)[nH]c1=O` [safener (Ia), 2-oxo-6-trifluoromethyl-1,2-dihydropyridine-3-carboxamide], the “Reduction of the harmful effect” value with Hordeum vulgare (barley) [3] (herbicide (1.1.1.10) tembotrione 20 g of AS/ha) was “category A (category A = 50-100% reduction of the harmful action)”; in the experiment on Hordeum vulgare (barley) [3] (setting [12]), “category A (category A = 50-100% reduction of the harmful action)”; in the experiment on Hordeum vulgare (barley) [3] (herbicide (1.3.1.20c) fenoxaprop-P-ethyl 400 g of AS/ha) it was “category A (category A = 50-100% reduction of the harmful action)”; in [4] (herbicide (1.1.1.10) tembotrione 20 g of AS/ha, safener (Ia) 80 g of AS/ha), “category A (category A = 50-100% reduction of the harmful action)”; in experiment [4] (herbicide (1.1.2.10) picolinafen 200 g of AS/ha, safener (Ia) 100 g of AS/ha) it was “category A (category A = 50-100% reduction of the harmful action)”; in [4] (herbicide (1.2.1.14) mesosulfuron-methyl 40 g of AS/ha, safener (Ia) 80 g of AS/ha) it was “category A (category A = 50-100% reduction of the harmful action)”. Moreover, the “Reduction of the harmful effect” value was “category A (category A = 50-100% reduction of the harmful action)” in experiment [4] (herbicide (1.2.1.58) thiencarbazone-methyl 15 g of AS/ha, safener (Ia) 100 g of AS/ha); “category A (category A = 50-100% reduction of the harmful action)” in [4] (herbicide (1.3.1.20c) fenoxaprop-P-ethyl 100 g of AS/ha, safener (Ia) 20 g of AS/ha); “category B (category B = 20-49% reduction of the harmful action)” in experiment [4] (herbicide (2.2.12) flumioxazin 100 g of AS/ha, safener (Ia) 50 g of AS/ha); “category B (category B = 20-49% reduction of the harmful action)” with Zea mays (corn) [5] (herbicide (1.2.1.11b) iodosulfuron-methyl-sodium 100 g of AS/ha); “category A (category A = 50-100% reduction of the harmful action)” in the experiment with Zea mays (corn) [5] (herbicide (1.2.1.48) imazethapyr 100 g of AS/ha); “category A (category A = 50-100% reduction of the harmful action)” with Zea mays (corn) [5] (herbicide (2.2.12) flumioxazin 50 g of AS/ha). For the same compound, the “Reduction of the harmful effect” value with Oryza sativa (rice) [6] (herbicide (1.1.1.4) mesotrione 400 g of AS/ha, safener (Ia) 75 g of AS/ha) was “category A (category A = 50-100% reduction of the harmful action)”; in the experiment on Oryza sativa (rice) [6] (herbicide (1.1.1.4) mesotrione 600 g of AS/ha, applied to the water around the test plants (paddy rice conditions), safener (Ia) 75 g of AS/ha), “category A (category A = 50-100% reduction of the harmful action)”; with Oryza sativa (rice) [6] (herbicide (1.2.1.15) foramsulfuron 15 g of AS/ha, safener (Ia) 100 g of AS/ha), “category B (category B = 20-49% reduction of the harmful action)”; in the experiment on Oryza sativa (rice) [6] (herbicide (1.2.1.58) thiencarbazone-methyl 10 g of AS/ha, safener (Ia) 300 g of AS/ha), “category A (category A = 50-100% reduction of the harmful action)”; with Oryza sativa (rice) [6] (herbicide (1.2.1.62b) bispyribac-sodium 200 g of AS/ha, safener (Ia) 75 g of AS/ha) it was “category A (category A = 50-100% reduction of the harmful action)”; in the experiment with Oryza sativa (rice) [6] (herbicide (1.3.1.20c) fenoxaprop-P-ethyl 100 g of AS/ha, safener (Ia) 300 g of AS/ha), “category A (category A = 50-100% reduction of the harmful action)”. Besides, the “Reduction of the harmful effect” value in the experiment with Oryza sativa (rice) [6] (herbicides (1.2.1.14) mesosulfuron-methyl + (1.2.1.11b) iodosulfuron-methyl-sodium 4 + 0.8 g of AS/ha, safener (Ia) 150 g of AS/ha) is “category A (category A = 50-100% reduction of the harmful action)”; in the experiment on Zea mays (corn) [7] (herbicide (1.1.1.22) isoxaflutole 300 g of AS/ha, safener (Ia) 300 g of AS/ha) it was “category A (category A = 50-100% reduction of the harmful action)”; in the experiment with Zea mays (corn) [7] (herbicide (1.4.4.17) flufenacet 125 g of AS/ha, safener (Ia) 150 g of AS/ha), “category A (category A = 50-100% reduction of the harmful action)”; with Oryza sativa (rice) [8], “category B (category B = 20-49% reduction of the harmful action)”; with Hordeum vulgare (barley) [9] (herbicide (1.2.1.14) mesosulfuron-methyl 30 g of AS/ha, safener (Ia) 0.5 g of AS/kg seed), “category A (category A = 50-100% reduction of the harmful action)”; in the experiment on Hordeum vulgare (barley) [9] (herbicide (1.2.1.58) thiencarbazone-methyl 15 g of AS/ha, safener (Ia) 1.0 g of AS/kg seed) it was “category A (category A = 50-100% reduction of the harmful action)”. In addition, the “Reduction of the harmful effect” value in experiment [10] (herbicide (1.2.1.14) mesosulfuron-methyl 30 g of AS/ha) is “category A (category A = 50-100% reduction of the harmful action)”; in experiment [10] (setting [12]), “category A (category A = 50-100% reduction of the harmful action)”; in the experiment on Zea mays (corn) [11] (herbicide (1.1.1.22) isoxaflutole 200 g of AS/ha, safener (Ia) 0.5 g of AS/kg seed) it was “category A (category A = 50-100% reduction of the harmful action)”; in the experiment on Zea mays (corn) [11] (herbicide (1.2.1.58) thiencarbazone-methyl 5 g of AS/ha, safener (Ia) 1.0 g of AS/kg seed) it was “category A (category A = 50-100% reduction of the harmful action)”. Besides, in experiment [1], the “action of the herbicide” value is “not, or not substantially, adversely affected”. In experiment [2], the “action of the respective herbicide” value was “not, or not substantially, adversely affected”.

On to `NC(=O)c1ccc(C(F)F)nc1O` [safener (Ic), 2-oxo-6-difluoromethyl-1,2-dihydropyridine-3-carboxamide], for which the “action of the herbicide” value in experiment [1] was “not, or not substantially, adversely affected”. For the same compound, the “action of the respective herbicide” value in experiment [2] is “not, or not substantially, adversely affected”.
